Test results: patent US7067290B2, “Method for production of polyketides” (Kosan Biosciences Incorporated, priority 2002, dated 2006)

Experiment: pH stability of triketide lactones in fermentation supernatant
Assay type: physicochemical
Settings: pH values above 6–8 (FIG. 1)
Experimental: Samples were centrifuged to remove cells and insoluble media components. If necessary, supernatants were diluted in 1:1 acetonitrile-water with 0.1% acetic acid. Samples were analyzed by HPLC-MS/MS, quantitating by comparison with an internal analytical standard of 2,4-dimethyl-3-hydroxyoctanoic acid δ-lactone (“P-TKL”). In cases where the purity of the analytic standard was doubtful, titers were renorted as arbitrary units. Samples were injected onto a C18 reversed-phase HPLC column and eluted with a gradient of acetonitrile in water containing 0.1% formic acid. Triketide lactones were detected using multiple reaction monitoring of the following MS/MS transitions: TKL: m/z 173 to 109; CM-TKL: m/z 193 to 119; V-TKL: m/z 171 to 107; and P-TKL: m/z 181 to 123.
To test the stability of CM-TKL and V-TKL in fermentation supernatant, the following experiment was undertaken. Supernatant from flask cultures was collected at the end of an experiment by centrifugation at 2700×g for 20 minutes. The supernatant was divided into four portions. The pH of the control portion was adjusted to 3.5, and that sample was frozen at −20° C. […] The samples were incubated for 18 hours at 30° C. then analyzed for product as described previously with the data reported as percent of the control.

SMILES | stability in fermentation broth
C[C@@H]1[C@H](O)[C@@H](C)C(=O)O[C@@H]1CCl [CM-TKL] | unstable
C=C[C@H]1OC(=O)[C@H](C)[C@@H](O)[C@H]1C [V-TKL] | unstable
